In patent US12139499B2, “Heteroaryl compounds for treating Huntington's disease” (PTC THERAPEUTICS, INC., priority 2018, dated 2024) one finds IC50 data, which are given here for 30 compounds.

The subject of the experiment is Endogenous Huntingtin Protein. The experiment is described as follows: Endogenous Huntingtin Protein Assay (ELISA-based MSD electrochemiluminescence). The class given is cell-based. Conditions: Table 1. The gist of the method: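 Sandwich MSD electrochemiluminescence immunoassay. Capture used MW1 (expanded polyglutamine) or MAB2166 antibody coated at 1 μg/mL overnight at 4 °C. Samples were bound overnight at 4 °C, then a rabbit monoclonal detection antibody and SULFO-TAG anti-rabbit, each at 0.25 μg/mL, were applied for 1 h at room temperature.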
Background: ELISA stands for enzyme-linked immunosorbent assay.

The term IC50 denotes the midpoint of a concentration-inhibition curve. The low end stands for higher potency, the high end for lower potency. Turning to `CN(c1nc2cnc(-c3cc(C#N)c4nn(C)cc4c3)cc2s1)[C@@H]1C[C@H]2CC[C@@H](C1)N2C` [Compound 238, 2-methyl-5-(2-{methyl[(3-exo)-8-methyl-8-azabicyclo[3.2.1]oct-3-yl]amino}[1,3]thiazolo[4,5-c]pyridin-6-yl)-2H-indazole-7-carbonitrile], the IC50 was not above 100 nM. The result for `Cc1cn2cc(-c3cc4sc(N(C)[C@@H]5C[C@H]6CC[C@@H](C5)N6C)nc4cn3)cc(F)c2n1` [Compound 239, 6-(8-fluoro-2-methylimidazo[1,2-a]pyridin-6-yl)-N-methyl-N-[(3-exo)-8-methyl-8-azabicyclo[3.2.1]oct-3-yl][1,3]thiazolo[4,5-c]pyridin-2-amine] reads 100 to 500 nM; that for `Cc1cn2cc(-c3cc4sc(N(C)[C@@H]5C[C@H]6CC[C@@H](C5)N6C)nc4cn3)cc(C#N)c2n1` [Compound 240, 2-methyl-6-(2-{methyl[(3-exo)-8-methyl-8-azabicyclo[3.2.1]oct-3-yl]amino}[1,3]thiazolo[4,5-c]pyridin-6-yl)imidazo[1,2-a]pyridine-8-carbonitrile], 100 to 500 nM; that for `CN(c1nc2cnc(-c3cc(F)c4nn(C)cc4c3)cc2s1)[C@@H]1C[C@H]2CC[C@@H](C1)N2C` [Compound 241, 6-(7-fluoro-2-methyl-2H-indazol-5-yl)-N-methyl-N-[(3-exo)-8-methyl-8-azabicyclo[3.2.1]oct-3-yl][1,3]thiazolo[4,5-c]pyridin-2-amine], 100 to 500 nM. For `CCN(c1nc2cnc(-c3cc(C#N)c4nc(C)cn4c3)nc2s1)C1CC(C)(C)NC(C)(C)C1` [Compound 242, 6-{2-[ethyl(2,2,6,6-tetramethylpiperidin-4-yl)amino][1,3]thiazolo[5,4-d]pyrimidin-5-yl)-2-methylimidazo[1,2-a]pyridine-8-carbonitrile] the value was 100 to 500 nM; for `CCN(c1nc2cnc(-c3cc(F)c4nc(C)cn4c3)nc2s1)C1CC(C)(C)NC(C)(C)C1` [Compound 243, N-ethyl-5-(8-fluoro-2-methylimidazo[1,2-a]pyridin-6-yl)-N-(2,2,6,6-tetramethylpiperidin-4-yl)[1,3]thiazolo[5,4-d]pyrimidin-2-amine], 100 to 500 nM; for `CN1[C@@H]2CC[C@H]1C[C@H](Nc1nc3cnc(-c4cc(C#N)c5nn(C)cc5c4)cc3s1)C2` [Compound 244, 2-methyl-5-(2-{[(3-exo)-8-methyl-8-azabicyclo[3.2.1]oct-3-yl]amino][1,3]thiazolo[4,5-c]pyridin-6-yl)-2H-indazole-7-carbonitrile], 1000 to 3000 nM.

Compound `Cc1cn2cc(-c3cc4sc(N[C@@H]5C[C@H]6CC[C@@H](C5)N6C)nc4cn3)cc(C#N)c2n1` [Compound 245, 2-methyl-6-(2-{[(3-exo)-8-methyl-8-azabicyclo[3.2.1]oct-3-yl]amino][1,3]thiazolo[4,5-c]pyridin-6-yl)imidazo[1,2-a]pyridine-8-carbonitrile] had an IC50 of 1000 to 3000 nM. The result for `CN1[C@@H]2CC[C@H]1C[C@H](Nc1nc3cnc(-c4cc(F)c5nn(C)cc5c4)cc3s1)C2` [Compound 246, 6-(7-fluoro-2-methyl-2H-indazol-5-yl)-N-[(3-exo)-8-methyl-8-azabicyclo[3.2.1]oct-3-yl][1,3]thiazolo[4,5-c]pyridin-2-amine] reads 1000 to 3000 nM; that for `Cc1cn2cc(-c3cc4sc(N[C@@H]5C[C@H]6CC[C@@H](C5)N6C)nc4cn3)cc(F)c2n1` [Compound 247, 6-(8-fluoro-2-methylimidazo[1,2-a]pyridin-6-yl)-N-[(3-exo)-8-methyl-8-azabicyclo[3.2.1]oct-3-yl][1,3]thiazolo[4,5-c]pyridin-2-amine], 100 to 500 nM.

Turning to `Cc1cn2nc(-c3cc(F)c4nc(N(C)C5CNC5)sc4c3)cc(C)c2n1` [Compound 248, N-(azetidin-3-yl)-6-(2,8-dimethylimidazo[1,2-b]pyridazin-6-yl)-4-fluoro-N-methyl-1,3-benzothiazol-2-amine], the IC50 was 100 to 500 nM. For `Cc1cc2nc(-c3cc(F)c4nc(C5CCNCC5)sc4c3)ccn2n1` [Compound 249, 5-[4-fluoro-2-(piperidin-4-yl)-1,3-benzothiazol-6-yl]-2-methylpyrazolo[1,5-a]pyrimidine] the value was not above 100 nM. The result for `Cc1cc2nc(-c3cc(F)c4nc(N(C)C5CCNCC5)sc4c3)ccn2n1` [Compound 250, 4-fluoro-N-methyl-6-(2-methylpyrazolo[1,5-a]pyrimidin-5-yl)-N-(piperidin-4-yl)-1,3-benzothiazol-2-amine] reads 100 to 500 nM. For `Cc1cn2cc(-c3cc4sc(N(C)C5CC6CCCC(C5)N6)nc4cn3)cc(C#N)c2n1` (stereo not drawn) [Compound 251, 6-{2-[9-azabicyclo[3.3.1]non-3-yl(methyl)amino][1,3]thiazolo[4,5-c]pyridin-6-yl}-2-methylimidazo[1,2-a]pyridine-8-carbonitrile], the IC50 is not above 100 nM. For `CN(c1nc2cnc(-c3cc(C#N)c4nn(C)cc4c3)cc2s1)C1CC2CCCC(C1)N2` (stereo not drawn) [Compound 252, 5-{2-[9-azabicyclo[3.3.1]non-3-yl(methyl)amino][1,3]thiazolo[4,5-c]pyridin-6-yl}-2-methyl-2H-indazole-7-carbonitrile] the value was not above 100 nM. The compound `CN(c1nc2cnc(-c3cc(F)c4nn(C)cc4c3)cc2s1)C1CC2CCCC(C1)N2` (stereo not drawn) [Compound 253, N-(9-azabicyclo[3.3.1]non-3-yl)-6-(7-fluoro-2-methyl-2H-indazol-5-yl)-N-methyl[1,3]thiazolo[4,5-c]pyridin-2-amine] returned an IC50 not above 100 nM. The result for `Cc1cn2cc(-c3ncc4nc(N(C)C5CC6(C)CC[C@](C)(C5)N6)sc4n3)cc(C#N)c2n1` (stereo partly drawn) [Compound 255, 6-(2-{[(1R)-1,5-dimethyl-8-azabicyclo[3.2.1]oct-3-yl](methyl)amino}[1,3]thiazolo[5,4-d]pyrimidin-5-yl)-2-methylimidazo[1,2-a]pyridine-8-carbonitrile] reads not above 100 nM; that for `Cc1cn2cc(-c3ncc4nc(N(C)C5C[C@H]6CCC[C@@H](C5)N6)sc4n3)cc(C#N)c2n1` (stereo partly drawn) [Compound 256, 6-{2-[(1R,5S)-9-azabicyclo[3.3.1]non-3-yl(methyl)amino][1,3]thiazolo[5,4-d]pyrimidin-5-yl}-2-methylimidazo[1,2-a]pyridine-8-carbonitrile], not above 100 nM. For `Cc1cn2cc(-c3ncc4nc(N(C)C5C[C@H]6CCC[C@@H](C5)N6)sc4n3)cc(F)c2n1` (stereo partly drawn) [Compound 257, N-[(1R,5S)-9-azabicyclo[3.3.1]non-3-yl]-5-(8-fluoro-2-methylimidazo[1,2-a]pyridin-6-yl)-N-methyl[1,3]thiazolo[5,4-d]pyrimidin-2-amine] the value was not above 100 nM; for `Cc1cn2nc(-c3cc(F)c4nc(N(C)[C@H]5CCN[C@@H](C)C5)sc4c3)ccc2n1` [Compound 258, 4-fluoro-N-methyl-6-(2-methylimidazo[1,2-b]pyridazin-6-yl)-N-[(2S,4S)-2-methylpiperidin-4-yl]-1,3-benzothiazol-2-amine], not above 100 nM.

Take `Cc1cn2nc(-c3cc(F)c4nc(N(C)[C@@H]5CCN[C@@H](C)C5)sc4c3)ccc2n1` [Compound 259, 4-fluoro-N-methyl-6-(2-methylimidazo[1,2-b]pyridazin-6-yl)-N-[(2S,4R)-2-methylpiperidin-4-yl]-1,3-benzothiazol-2-amine]: the IC50 is not above 100 nM.

Turning to `Cc1cn2cc(-c3cc4sc(N(C)C5CC6CCCC(C5)N6)nc4cn3)ccc2n1` (stereo not drawn) [Compound 260, N-(9-azabicyclo[3.3.1]non-3-yl)-N-methyl-6-(2-methylimidazo[1,2-a]pyridin-6-yl)[1,3]thiazolo[4,5-c]pyridin-2-amine], the IC50 was not above 100 nM. For `Cc1cn2cc(-c3cc4sc(N(C)C5CC6CCCC(C5)N6)nc4cn3)cc(C)c2n1` (stereo not drawn) [Compound 261, N-(9-azabicyclo[3.3.1]non-3-yl)-6-(2,8-dimethylimidazo[1,2-a]pyridin-6-yl)-N-methyl[1,3]thiazolo[4,5-c]pyridin-2-amine] the value was not above 100 nM; for `CN(c1nc2cnc(-c3ccc4nn(C)cc4c3)cc2s1)C1CC2CCCC(C1)N2` (stereo not drawn) [Compound 262, N-(9-azabicyclo[3.3.1]non-3-yl)-N-methyl-6-(2-methyl-2H-indazol-5-yl)[1,3]thiazolo[4,5-c]pyridin-2-amine], not above 100 nM; for `Cc1cc(-c2cc3sc(N(C)C4CC5CCCC(C4)N5)nc3cn2)cc2cn(C)nc12` (stereo not drawn) [Compound 263, N-(9-azabicyclo[3.3.1]non-3-yl)-6-(2,7-dimethyl-2H-indazol-5-yl)-N-methyl[1,3]thiazolo[4,5-c]pyridin-2-amine], not above 100 nM. For `COc1cc(-c2cc3sc(N(C)C4CC5CCCC(C4)N5)nc3cn2)cc2cn(C)nc12` (stereo not drawn) [Compound 264, N-(9-azabicyclo[3.3.1]non-3-yl)-6-(7-methoxy-2-methyl-2H-indazol-5-yl)-N-methyl[1,3]thiazolo[4,5-c]pyridin-2-amine] the value was not above 100 nM.

In the case of `Cc1cn2cc(-c3ncc4nc(N(C)C5CC(C)(C)NC(C)(C)C5)sc4n3)cc2c(C)n1` [Compound 265, 5-(1,3-dimethylpyrrolo[1,2-a]pyrazin-7-yl)-N-methyl-N-(2,2,6,6-tetramethylpiperidin-4-yl)[1,3]thiazolo[5,4-d]pyrimidin-2-amine], the IC50 is not above 100 nM. For `Cc1cn2cc(-c3cc4sc(NC5CC(C)(C)N(C)C(C)(C)C5)nc4cn3)cc(C#N)c2n1` [Compound 266, 2-methyl-6-{2-[(1,2,2,6,6-pentamethylpiperidin-4-yl)amino][1,3]thiazolo[4,5-c]pyridin-6-yl}imidazo[1,2-a]pyridine-8-carbonitrile] the value was 100 to 500 nM; for `Cc1cn2cc(-c3cc4sc(NC5CC(C)(C)N(C)C(C)(C)C5)nc4cn3)cc(F)c2n1` [Compound 267, 6-(8-fluoro-2-methylimidazo[1,2-a]pyridin-6-yl)-N-(1,2,2,6,6-pentamethylpiperidin-4-yl)[1,3]thiazolo[4,5-c]pyridin-2-amine], 100 to 500 nM. For `CN1C(C)(C)CC(Nc2nc3cnc(-c4cc(C#N)c5nn(C)cc5c4)cc3s2)CC1(C)C` [Compound 268, 2-methyl-5-{2-[(1,2,2,6,6-pentamethylpiperidin-4-yl)amino][1,3]thiazolo[4,5-c]pyridin-6-yl}-2H-indazole-7-carbonitrile] the value was 100 to 500 nM.
